The source of these data is publication PMC9788182, “Natural Compounds as Non-Nucleoside Inhibitors of Zika Virus Polymerase through Integration of In Silico and In Vitro Approaches” (Pharmaceuticals, 2022).

Usually EC50 stands for the midpoint of the concentration-response curve. As a reminder, the IC50 is the midpoint of a concentration-inhibition curve. Usually CC50 stands for the concentration that lowers cell viability or growth by half. A higher CC50 goes with better tolerance by the cells.

Like-named read-outs stand apart in the source and are kept apart here.

The subject of one data set is ZIKV. On the set-up: method as in PMID 30392049. Conditions: Vero cells; cited from earlier work.
The subject of a further data set is DENV RdRP. Conditions: ref 31 (10), ref 21 (11), ref 30 (12); cited from earlier work.
The target in the next data set is ZIKV NS5 RdRp (Zika virus, UniProt Q32ZE1). As to the kind of experiment: ZIKV NS5-RdRp activity assays (endpoint and concentration-response). Conditions: for inhibition at 20 µM: endpoint assay at 20 µM, read-out: inhibitory activity against ZIKV RdRp. The data set is classed as biochemical. The protocol: Nine prioritized hits were submitted to endpoint assay at 20 µM to verify their inhibitory activity against ZIKV RdRp. […] Pedalitin and quercetin were the only ones with activity greater than 80%, with inhibitory activity of 97% and 99%, respectively, and consequently were selected for the concentration-response assays.
ZIKV NS5 RdRp, sequence (Q32ZE1 2822-3419): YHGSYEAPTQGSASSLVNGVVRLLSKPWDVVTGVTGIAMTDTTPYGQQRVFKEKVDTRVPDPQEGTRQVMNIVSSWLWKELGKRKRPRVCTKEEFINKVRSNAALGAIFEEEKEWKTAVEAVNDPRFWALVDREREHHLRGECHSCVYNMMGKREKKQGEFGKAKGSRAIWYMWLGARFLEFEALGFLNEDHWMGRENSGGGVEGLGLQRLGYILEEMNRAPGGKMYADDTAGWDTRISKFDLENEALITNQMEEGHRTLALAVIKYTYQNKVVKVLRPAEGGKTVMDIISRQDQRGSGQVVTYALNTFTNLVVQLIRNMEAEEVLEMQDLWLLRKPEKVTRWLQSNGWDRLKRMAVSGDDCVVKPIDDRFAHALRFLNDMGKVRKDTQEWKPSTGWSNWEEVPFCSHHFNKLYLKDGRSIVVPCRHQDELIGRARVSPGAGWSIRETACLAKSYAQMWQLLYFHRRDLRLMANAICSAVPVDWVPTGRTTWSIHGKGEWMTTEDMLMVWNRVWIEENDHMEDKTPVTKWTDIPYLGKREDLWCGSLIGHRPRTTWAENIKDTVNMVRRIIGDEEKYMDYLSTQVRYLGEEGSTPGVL
We then investigated ZIKV RdRp activity in the presence of pedalitin and quercetin.
ZIKV NS5-RdRp activity assays were performed as described by Fernandes and coworkers. The endpoint assays were performed at 20 μM, and the compounds that inhibited more than 80% of activity in this assay were submitted to a concentration-response test. The concentration-responses assays were performed as described in [94]. In all cases, the percentage inhibition values were calculated based on a control reaction, containing only DMSO in the same concentrations used for the tested compounds. The results were analyzed and plotted using the GraphPad Prism v. 8.0 program.

The next data set concerns ZIKV^BR. The data set is described as follows: Antiviral assay, Vero cells infected with ZIKV^BR, foci by immunofluorescence. The data set is classed as cell-based, Zika virus. Conditions: for SI (selectivity index): SI = CC50/EC50, Vero cells; for EC50: Zika virus, read-out: EC50 ZIKV. As to the method: The anti-ZIKV activities of the pedalitin and quercetin were further investigated through the employment of Vero cells infected with ZIKV wild type (ZIKV^BR) (Figure 6). […] Vero cells were infected with ZIKV^BR and simultaneously treated with pedalitin or quercetin at concentrations ranging from 200 µM to 0.005 µM for 72 h when viral replication rates were assessed (Figure 6). Cell viability analysis was performed in parallel (Figure 6).
Vero cells were seeded at density of 5 × 10^3 cells per well into 96-well plates 24 h prior to the infection. ZIKV-WT^BR at a multiplicity of infection (MOI) of 0.1 and compound at concentrations ranging from 200 to 0.005 µM were simultaneously added to cells. 72 h post-infection (h.p.i.), cells were fixed with paraformaldehyde 4%, washed with PBS and blocking buffer (BB) containing: 0.1% Triton X-100 (Vetec Labs, PR, BR), 0.2% bovine albumin (BSA) and PBS for 30 min. Then, cells were incubated with primary rabbit polyclonal anti-NS3 antibody diluted in BB for 1 h. Alexa Fluor 488 conjugated anti-rabbit IgG was used as secondary antibody (Abcam, Cambridge, UK). Images were analyzed by EVO cell imaging systems fluorescence microscopy (Thermo Fisher Scientific, OH, USA) and foci of infection were counted. The antiviral activity was calculated according to the equation (T/C) × 100%, where T and C represent the mean of the treated group and mean of the […], respectively. […] 8. The values of CC50 and EC50 were used to calculate the selectivity index (SI = CC50/EC50).

The next data set can be described thus: Cell viability, MTT. The format is cell-based. Conditions: African green monkey, Vero cells. The protocol:
Cell viability was measured by the MTT [3-(4,5-dimethylthiazol-2-yl)-2,5-diphenyl tetrazolium bromide] (Sigma–Aldrich) method. Vero cells were seeded in a 96-well plate at a density of 5 × 10^3 cells per well and incubated overnight at 37 °C in a humidified 5% CO2 incubator. A drug-containing medium at concentrations ranging from 200 to 0.005 µM was added to the cell culture. After 72 h at 37 °C, the media was removed and a solution containing MTT at the final concentration of 1 mg/mL was added to each well and incubated for 30 min at 37 °C in a humidified 5% CO2 incubator, after which media was replaced with 100 μL of DMSO to solubilize the formazan crystals. Absorbance was measured by the optical density (OD) of each well at 490 nm, using a spectrophotometer. Cell viability was calculated according to the equation (T/C) × 100%, where T and C represent the mean optical density of the treated group and vehicle control group, respectively. […] 8 [95].

The subject of a further data set is SARS-CoV-2 RdRp. Set-up: method as in PMID 35732785. Conditions: cited from earlier work.
For a further data set, the system named is DENV1 RdRP. On the set-up: method as in earlier work. Conditions: ref 49 (13), ref 8 (14), ref 24 (15); cited from earlier work.
For the next data set, the system named is DENV2 RdRP. On the set-up: method as in earlier work. Conditions: ref 49 (13), ref 8 (14), ref 24 (15); cited from earlier work.
The subject of another data set is DENV3 RdRP. Set-up: method as in earlier work. Conditions: ref 49 (13), ref 8 (14), ref 24 (15); cited from earlier work.
For another data set, the system named is DENV4 RdRP. Set-up: method as in earlier work. Conditions: ref 49 (13), ref 8 (14), ref 24 (15); cited from earlier work.
Data set [1] has as its system Japanese encephalitis virus (JEV). Conditions: cited from earlier work.
The test system of another data set is DENV-2. On the set-up: method as in PMID 34126315, PMID 24965553. Conditions: read-out: DENV2 EC50; cited from earlier work.
The subject of another data set is DENV-2 virus. On the set-up: method as in PMID 22201648. Conditions: Vero cells, cited from earlier work.
Data set [2] deals with ZIKV RdRp. On the set-up: method as in PMID 28098253. Conditions: cited from earlier work.
The subject of data set [3] is ZIKV RdRp. On the set-up: method as in PMID 31310806. Conditions: cited from earlier work.

Take `O=C(O)[C@H]1O[C@@H](Oc2cc3oc(-c4ccccc4)cc(=O)c3c(O)c2O)[C@H](O)[C@@H](O)[C@@H]1O` [Compound 19, baicalin]: the EC50 in the data set with ZIKV was 14 µM.

For the compound `COc1cc(O)c2c(=O)c(O)c(-c3ccc(O)c(O)c3)oc2c1` [Compound 12, rhamnetin], the IC50 with DENV RdRP was 2.2 ± 0.2 µM.

For `COc1cc2oc(-c3ccc(O)c(O)c3)cc(=O)c2c(O)c1O` [Compound 8, Pedalitin], at ZIKV NS5 RdRp, it took 4.1 ± 0.3 µM to reach half-maximal inhibition (IC50) and the inhibition at 20 µM came out at 97%. For the same compound, the “SI (selectivity index)” value in the data set with ZIKV^BR turned out to be 4.34. In the data set on ZIKV^BR (Vero, 72 h), the 50% effective concentration (EC50) is 19.3 µM. It took 83.7 µM to reach half-maximal cytotoxicity in the data set “Cell viability, MTT” (CC50 at 72 h).

As for `O=c1cc(-c2ccc(O)c(O)c2)oc2cc(O)cc(O)c12` [luteolin], in the data set with SARS-CoV-2 RdRp, the IC50 was 4.6 µM.

`COc1cc(C)c(C(=O)NS(=O)(=O)c2cccc3cccnc23)cc1-c1ccc(C#CCO)s1` [Compound 15, 5-(5-(3-Hydroxyprop-1-yn-1-yl)thiophen-2-yl)-4-methoxy-2-methyl-N-(quinolin-8-ylsulfonyl)benzamide]: the IC50 is 0.013 µM in the data set with DENV1 RdRP, 0.038 µM in the data set on DENV2 RdRP, 0.016 µM with DENV3 RdRP and 0.023 ± 0.01 µM with DENV4 RdRP.

Regarding podocarpusflavone A [Compound 10], in the data set with DENV RdRP, the IC50 is 0.16 ± 0.02 µM.

Consider `O=C(O)CCCC(/C=C/c1ccccc1)c1c(O)c(C(CCCC(=O)O)CCc2ccccc2)c(O)c2c(=O)cc(-c3ccccc3)oc12` (stereo not drawn) [Compound 11, chartaceone D], for which the IC50 in the data set on DENV RdRP is 1.8 ± 1.2 µM.

As for `O=c1cc(-c2ccccc2)oc2cc(O)c(O)c(O)c12` [Compound 18, baicalein], the concentration giving a half-maximal response (EC50) was 0.004 µM in the data set on ZIKV, 27 ± 4 µM in data set [1] and 55.1 µM in the data set with DENV-2. Further, the “JEV ED50” value in data set [1] (Figure 4) was 27 µM.

In the case of `O=c1c(O)c(-c2ccc(O)c(O)c2)oc2cc(O)cc(O)c12` [Compound 9, Quercetin], the concentration for half-maximal inhibition (IC50) on ZIKV NS5 RdRp (concentration-response, 80 µM to 0.156 µM, read-out: IC50 ZIKV RdRp) was 0.5 ± 0.1 µM; in the data set with SARS-CoV-2 RdRp it was 6.9 µM. Moreover, at ZIKV NS5 RdRp, the inhibition at 20 µM worked out at 99%. In addition, the “SI (selectivity index)” value in the data set on ZIKV^BR is listed as 2.03. The EC50 is 17.7 µM in the data set on ZIKV^BR (Vero cells, ZIKV^BR MOI 0.1, 72 h, 200 to 0.005 µM) and 95.6 µM with DENV-2 virus (administration after viral adsorption). Also, the CC50 at 72 h in the data set “Cell viability, MTT” came to 36 µM. In the data set with DENV-2 virus (concentration of 165.4 µM), the “reduction of DENV-2 replication” value was 67%.

For `CC(C)OC(=O)[C@H](C)N[P@](=O)(OC[C@H]1O[C@@H](n2ccc(=O)[nH]c2=O)[C@](C)(F)[C@@H]1O)Oc1ccccc1` [Sofosbuvir, sofosbuvir], the IC50 in the data set with ZIKV RdRp [2] is 0.38 ± 0.03 µM.

With `O=C(Cc1ccccc1Nc1c(Cl)cccc1Cl)NC1(C(=O)O)Cc2ccccc2C1` [Compound 13, bis-chloro-diphenylamine, 2-aminoindan-2-carboxyl derivative], the half-inhibitory concentration (IC50) with DENV1 RdRP is 6.6 ± 1.3 µM; with DENV2 RdRP, 16.5 ± 1.8 µM; in the data set with DENV3 RdRP it was 12.8 ± 1.3 µM; in the data set on DENV4 RdRP it was 6.1 ± 1 µM.

As to `COc1cccc(S(=O)(=O)NC(=O)c2cc(-c3ccc(C#CCO)s3)c(OC)cc2OC)c1` [Compound 14, 5-(5-(3-Hydroxyprop-1-yn-1-yl)thiophen-2-yl)-2,4-dimethoxy-N-((3-methoxyphenyl)sulfonyl)benzamide], the IC50 with DENV1 RdRP is 0.068 µM; in the data set on DENV2 RdRP it was 0.106 µM; with DENV3 RdRP, 0.048 µM; in the data set with DENV4 RdRP it was 0.172 ± 0.097 µM.

On to `C=CCCCCCCCCC(=O)O` [Compound 17, undecylenic acid], for which the EC50 in the data set with ZIKV RdRp [3] is 7.43 µM.
